Values after ≈ are worked out from the molar mass of the structure shown.

Assay [1] concerns MRSA ATCC 33592. Format: cell-based, methicillin-resistant S. aureus. As to conditions: ATCC 33592, Mueller-Hinton broth, 24 hr, 37°C, without replication; for MIC MRSA in the presence of 4% bovine serum albumin: 4% BSA added, macrobroth dilution; for MIC MRSA: CLSI macrobroth dilution, 5 x 10^5 CFU/mL. The essentials:
(§1)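 Read-out is the MIC after 24 hr incubation at 37°C in ambient air, determined by CLSI macrobroth dilution in cation-adjusted Mueller-Hinton broth with an inoculum near 5 × 10^5 CFU/mL; tested once.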
Background: Broth dilution looks for growth in wells or tubes with falling amounts of substance.

Assay [2] relates to E.coli CAN-ICU 61714. The assay is classed as cell-based, Escherichia coli. As to conditions: CAN-ICU 61714, Mueller-Hinton broth, 24 hr, 37°C, without replication; for MIC E.coli in the presence of 4% bovine serum albumin: 4% BSA added, macrobroth dilution; for MIC E.coli: CLSI macrobroth dilution, 5 x 10^5 CFU/mL. Put shortly: as §1
Assay [3] concerns E.coli CAN-ICU 63074. The assay is classed as cell-based, Escherichia coli. As to conditions: CAN-ICU 63074, Mueller-Hinton broth, 24 hr, 37°C, without replication; for MIC E.coli in the presence of 4% bovine serum albumin: 4% BSA added, macrobroth dilution; for MIC E.coli: CLSI macrobroth dilution, 5 x 10^5 CFU/mL. Put shortly: as §1
The test system of assay [4] is E.coli ATCC 25922. The assay is classed as cell-based, Escherichia coli. As to conditions: ATCC 25922, Mueller-Hinton broth, 24 hr, 37°C, without replication; for MIC E.coli in the presence of 4% bovine serum albumin: 4% BSA added, macrobroth dilution; for MIC E.coli: CLSI macrobroth dilution, 5 x 10^5 CFU/mL. The essentials: as §1
Assay [5] concerns Gram negative bacteria. The experiment in a line: MIC with 4% BSA, summary over Gram negative strains. Format: cell-based. As to conditions: 4% BSA added. The method, then:
Antimicrobial activity of the purified lipopeptoids was determined without replication against a panel of clinically relevant and standard reference bacterial strains according to CLSI macrobroth standards. Stock solutions at 512 µg/mL were prepared in water, with DMSO as needed, and testing was performed in glass test tubes using Muller-Hinton broth and bacteria adjusted to 5 × 10^5 CFU/mL. Bacteria were incubated with the lipopeptoid of interest for 24 hr at 37°C prior to reading. […]
After subculturing the relevant bacteria twice from frozen stock, in vitro activities of the antimicrobials were determined by macrobroth dilution methodology in accordance with the Clinical and Laboratory Standards Institute (CLSI) guidelines (3). The MICs were determined using glass test tubes (2 mL/tube) containing doubling antimicrobial dilutions of cation adjusted Mueller-Hinton broth inoculated to achieve a final concentration of approximately 5 x 10^5 CFU/mL, incubated in ambient air for 24 hr prior to reading. […]

Regarding `NCCCCN(CC(N)=O)C(=O)CNC(=O)CN(CCCCN)C(=O)CCC(F)(F)C(F)(F)C(F)(F)C(F)(F)C(F)(F)C(F)(F)C(F)(F)C(F)(F)F` [F11-NlysGNlys], the “MIC MRSA in the presence of 4% bovine serum albumin” value in assay [1] worked out at 256 µg/mL. Besides, in assay [1], the “MIC MRSA” value is reported as 64 µg/mL (≈ 79.5 µM). Also, the “MIC E.coli in the presence of 4% bovine serum albumin” value in assay [2] is on record as 512 µg/mL; in assay [3], above 512 µg/mL; in assay [4] it was 512 µg/mL. Moreover, the “MIC E.coli” value in assay [2], in assay [3] and in assay [4] was 512 µg/mL (≈ 636 µM) each time.

Regarding `CCCCCCCCCCCCCCCC[N+](C)(C)C.[Cl-]` [CTAC, Cetyltrimethylammonium chloride, reference compound], in assay [1], the “MIC MRSA in the presence of 4% bovine serum albumin” value worked out at 32 µg/mL and the “MIC MRSA” value was 1 µg/mL. The “MIC against Gram negative bacteria with 4% BSA” value in assay [5] was at least 512 µg/mL. Moreover, in assay [2], the “MIC E.coli in the presence of 4% bovine serum albumin” value came to 512 µg/mL and the “MIC E.coli” value amounted to 32 µg/mL. For the same compound, in assay [3], the “MIC E.coli in the presence of 4% bovine serum albumin” value was determined as 512 µg/mL and the “MIC E.coli” value is reported as 16 µg/mL. In addition, in assay [4], the “MIC E.coli in the presence of 4% bovine serum albumin” value amounted to 512 µg/mL and the “MIC E.coli” value came to 16 µg/mL.

`NCCCCN(CC(N)=O)C(=O)CN(CCCCN)C(=O)CN(CCCCN)C(=O)CCC(F)(F)C(F)(F)C(F)(F)C(F)(F)C(F)(F)C(F)(F)C(F)(F)C(F)(F)F` [F11-NlysNlysNlys]: in assay [1], the “MIC MRSA in the presence of 4% bovine serum albumin” value is 256 µg/mL and the “MIC MRSA” value was found to be 32 µg/mL (≈ 36.5 µM). Further, in assay [2], the “MIC E.coli in the presence of 4% bovine serum albumin” value is 256 µg/mL and the “MIC E.coli” value came to 64 µg/mL (≈ 73.1 µM). In addition, in assay [3], the “MIC E.coli in the presence of 4% bovine serum albumin” value was determined as 512 µg/mL and the “MIC E.coli” value was found to be 128 µg/mL (≈ 146 µM). In assay [4], the “MIC E.coli in the presence of 4% bovine serum albumin” value is 256 µg/mL and the “MIC E.coli” value turned out to be 64 µg/mL (≈ 73.1 µM).

These data come from publication PMC3402541, “Guanidylation and Tail Effects in Cationic Antimicrobial Lipopeptoids” (PLoS ONE, 2012).
